According to article PMC12441861, “Next-Generation Lipid Prodrugs Orally Deliver Tenofovir via Enhanced Chylomicron Incorporation” (ACS Pharmacology & Translational Science, 2025):
Where two headings read alike, the source gives them in different places.

Tests used:
[1] = parent Cidofovir; ref Hostetler 2007; cited from earlier work
[2] = ref Hostetler 2007; cited from earlier work
[3] = set-up: method as in Hostetler 2007; conditions: single oral dose, prodrug in lung and liver over 72 h; ref Hostetler 2007; cited from earlier work
[4] = Metabolic stability in mouse liver microsomes; assay type: in vitro ADME; conditions: pH 7.4, read-out: Metabolic Stability MLM t1/2
[5] = Cytotoxicity, ATP luminescence (Cell Titer Glow) assay; conditions: human, TZM-bl cells
Experimental: (§1) To measure cytotoxicity, HeLa-derived TZM-bl cells , were treated with serial dilutions of each drug, and viability was assessed after 48 h. Two methods were used: an ATP luminescence assay, which measures cellular ATP levels as an indicator of metabolic activity (compounds 8a–d), and an MTT assay, which evaluates cell viability via mitochondrial enzymatic activity (compounds 15b, 21a, and 21b).
(§2) The TZM-bl cell line (BEI Resources, ARP-8129) was used to evaluate both cell viability and HIV pseudovirus infectivity reduction. Cytotoxicity in this cell line was measured via two methods. The first method, an ATP luminescence assay, was used for compounds 15a, 15b, 21a, and 21b as such: 6000 TZM-bl cells per well were seeded in a 96-well plate and incubated at 37 °C with 5% CO2 for 24 h. Compounds were prepared as serial dilutions (final concentrations of 1, 0.2, 0.04, 0.008, and 0.0016 μM) in complete DMEM with DEAE-Dextran at 40 μg/mL to mimic HIV infectivity conditions. Solutions were added to the cells and incubated for another 48 h. Viability was assessed using the Promega Cell Titer Glow (CTG) Assay (cat No. G9242) by adding a 50% PBS-CTG solution to each well and measuring luminescence, which correlates with ATP levels, on an Agilent BioTek Synergy HT reader. Cytotoxicity of compounds 8a–d was determined using a colorimetric assay based the conversion of MTT (3-(4,5-dimethylthiazol-2-yl)-2,5-diphenyltetrazolium bromide) to formazan as described previously. TZM-bl cells were plated into 96-well tissue culture plates 1 day prior to performing the MTT assay. A series of 10 3-fold dilutions of each compound was performed from a starting concentration of 10 mM and each dilution was tested for a reduction in cell viability according to the manufacturer’s instructions (CyQuant MTT Cell Viability Assay, ThermoFisher, V13154). Wells containing TZM-bl cells with media only were used as a control. Briefly, serial dilutions of each test compound were added to the plated TZM-bl cells. At 48 h, the media was removed and replaced with 100 mL of fresh culture medium. 10 mL of 12 mM MTT solution was added to each well and incubated at 37 °C for 4 h. 85 mL of supernatant was then removed from each well and replaced with 50 mL of DMSO. Following a 10 min incubation at 37 °C, the absorbance of each well was determined at 540 nm using a Biotek Synergy Neo2 multimode reader and Gen5 v3.02 software.

[6] = Metabolic stability in human liver microsomes; assay type: in vitro ADME; conditions: pH 7.4, read-out: Metabolic Stability HLM t1/2
Experimental: Assays employed human liver microsomes (HLMs, 20 mg/mL) from Xenotech. A 10 mM NADPH stock was prepared in deionized H2O, and test compounds were dissolved in 100% MeOH to a final concentration of 10 mM. The stock solutions were diluted to 500 μM in 100 mM potassium phosphate buffer (pH 7.4), keeping the final MeOH concentration below 0.2%. Reaction mixtures were prepared by combining 928 μL phosphate buffer, 55 μL liver microsomes, and the test compound solution to a final concentration of 3 μM. Verapamil was used as a positive control. The reactions were initiated with the addition of 110 μL of 10 mM NADPH. Aliquots were taken in duplicate at 0, 5, 10, 15, and 30 min, quenched with 100 μL of cold MeOH containing 2 μM internal standard (d 5-7-ethoxy coumarin), and centrifuged at 12,000 RCF for 5 min. The supernatants were then transferred to LC-MS vials for analysis. The average of each duplicate was normalized to the 0 min time point, representing 100% remaining (0% metabolism).

[7] = Mouse oral PK and tissue distribution, fed state; assay type: in vivo; conditions: single oral dose 10 mg/kg, fed mice
Text: Given the increased packaging of the CF3-modified lipids into CMs compared to their ω-unmodified congeners, we selected these compounds for PK studies in mice. We hypothesized that, following oral administration, our modified prodrugs would favor CM-mediated transport into the lymphatics over absorption into mesenteric veins feeding into the portal system. By circumventing direct transport to the liver, these prodrugs are expected to achieve elevated levels in the lung relative to the liver, as lymph empties into the jugular venous angle and mixes with blood en route to the pulmonary arteries (Figure ). For all mouse PK experiments, prodrugs were formulated in a 9:1 mixture of olive oil and ethanol, then administered to male C57BL/6 mice via oral gavage at a dose of 10 mg/kg. Organs (liver, lung, and plasma) were harvested at 1, 2, 4, 8, and 18 h postdose, per the protocol described by our groups previously. Concentrations of prodrug were quantified using LC-MS/MS after tissue homogenization, extraction, and sample preparation.
The compounds TXL, 15a, 15b, 21a, 21b, and a vehicle control were prepared at a concentration of 1 mg/mL in a 90:10 solution of olive oil (Sigma-Aldrich, cat. No. O1514) and 190-proof ethanol. The dosing for each mouse was calculated based on individual body weights to achieve a final dose of 10 mg/kg. For example, a 20 g mouse would receive 200 μL of the 1 mg/mL drug formulation, while a 25 g mouse would receive 250 μL.
In accordance with the American Chemical Society Guidelines to Publication of Chemical Research, we affirm the use of standard ethical practices when housing and handling research animals, as ensured by the Emory University’s Institutional Animal Care and Use Committee (IACUC) and the Division of Animal Resources (DAR) through a rigorous protocol review, amendment, and approval process. A total of 220 C57BL6/J male mice (aged 11–12 weeks, weight, 22–30 g) were used for these studies. Each mouse was weighed, recorded, and ear-clipped for identification. The dosing for each mouse was calculated based on individual body weights to achieve a final dose of 10 mg/kg. Animals were anesthetized using isoflurane gas before receiving a single dose of drug prepared as described above using a 22-gauge gavage needle attached to a calibrated syringe.
Time points for tissue collection were 1, 2, 4, 8, and 18 h for unfasted mice, and 1, 2, 4, 8, and 24 h for fasted mice. At each time point, the mice (n = 4 per compound per time point) were anesthetized using isoflurane and subjected to cardiac puncture for blood collection into EDTA-coated tubes. The collected blood samples were immediately placed on ice before the mice were humanely euthanized via cervical dislocation. Brain, liver, lungs, and kidneys were harvested, rinsed in PBS, and placed in prelabeled tubes. Tissues were flash-frozen in liquid nitrogen then transferred to dry ice for storage.
Blood samples were collected into EDTA-coated tubes and centrifuged at 400 RCF for 10 min at 4 °C to separate plasma from the cellular components. The plasma layer was carefully pipetted off and stored in separate prelabeled and preweighed tubes. All tissues were stored at −80 °C until time for processing.
Tissues were weighed (∼50 mg) into homogenization tubes and ACN containing a 10 μM ITSD was added to achieve a final solvent-to-tissue ratio of 4:1. Homogenization beads were added, and the tissues were processed (Biotage Lysera, part no. 19–060) using two 20 s pulses with a 10 s interval period. Homogenate was centrifuged at maximum speed for 1 h, supernatant collected and analyzed via LC-MS using the method described previously. For plasma samples, a 50 μL aliquot was added 200 μL of ACN containing ITSD. The mixture was vortexed thoroughly and then centrifuged to precipitate proteins, with the supernatant collected and analyzed via LC-MS. […]

[8] = system: Caco-2 cell total membrane; assay: Drug in Caco-2 total membrane fraction versus CM fraction; assay type: in vitro ADME, human
Text: Having completed this initial prodrug screening, we next sought to evaluate their ability to incorporate into CMs in vitro. For a lysoglycerolipid prodrug (e.g., TXL and BCV) to be packaged into CMs, it must first be transported into intestinal enterocytes, like Caco-2 cells, by intercalating into the outer leaflet of the plasma membrane before flipping (either actively or passively) to the inner leaflet. Subsequent membrane desorption facilitates intraenterocyte diffusion to the ER and Golgi, where CM are produced. Accordingly, we hypothesized that, even though high lipophilicity should drive prodrug association with CMs, these low hydrophilicity compounds first need to get through the plasma membrane, which could create a kinetic barrier to CM incorporation. […] Proceeding with the CM production and isolation assay as described (Scheme ), cells were harvested in parallel, and the total membrane fraction was separated from other cellular components via centrifugation through a specialized filter provided with the Minute Plasma Membrane Protein Isolation and Cell Fractionation Kit from Invent Biotechnologies (cat No. SM-005). […]
Total membrane fractionation was performed using a Minute Plasma Membrane Protein Isolation and Cell Fractionation Kit from Invent Biotechnologies (cat No. SM-005). […] The clear supernatant was collected and analyzed using LC-MS/MS.

[9] = Cytotoxicity, MTT assay; conditions: human, TZM-bl cells
Experimental: as §1, §2

Structure (SMILES): CCCCCCCCCCCCCCCCCCOCC(COP(=O)(O)COC(CO)Cn1ccc(N)nc1=O)OCc1ccccc1 (centres unmarked) [ODBG-CDV, 1-O-octadecyl-2-O-benzyl-sn-glycero-3-cidofovir]
- Δ Oral Availability (% versus Parent) [1]: 32%
- increase in lung delivery compared to liver [2]: 13-fold increase in lung delivery compared to liver
- lung/liver AUC0–72h [3]: 2.05

Structure (SMILES): CCCCCCCCCCCCCCCCOCCCOP(=O)(O)CO[C@H](CO)Cn1ccc(N)nc1=O [BCV, brincidofovir]
- lung/liver AUC0–72h [3]: 0.04

Structure (SMILES): C[C@H](Cn1cnc2c(N)ncnc21)OCP(=O)(O)OCCCOCCCCCCCCCCCCCCCCCC(F)(F)F [15b, Ammonium[(1R)-2-(6-aminopurin-9-yl)-1-methyl-ethoxy]methyl-[3-(18,18,18-trifluorooctadecoxy)propoxy]phosphinate]
- half-life at 3 µM [4]: 1.52 h
- CC50 at 48 h [5]: > 1 µM
- half-life at 3 µM [6]: > 2 h
- Tmax ([7]; male, C57BL/6, mouse, liver, read-out: Liver Tmax): 4 h
- Tmax ([7]; male, C57BL/6, mouse, lung, read-out: Lung Tmax): 8 h
- Cmax ([7]; male, C57BL/6, mouse, plasma): 102 ng/mL
- AUC(0-t) ([7]; male, C57BL/6, mouse, plasma, read-out: Plasma AUC0-18h): 1010 ng·h/mL
- Tmax ([7]; male, C57BL/6, mouse, plasma, read-out: Plasma Tmax): 4 h
- Liver AUC0-18h [7]: 133,000 h*ng/g
- Liver Cmax [7]: 13,400 ng/g
- Lung AUC0-18h [7]: 7,120 h*ng/g
- Lung Cmax [7]: 585 ng/g

Structure (SMILES): CCCCCCCCCCCCCCCCCCOC[C@H](COP(=O)(O)CO[C@H](C)Cn1cnc2c(N)ncnc21)OCc1ccccc1 [8d, Ammonium[(1R)-2-(6-aminopurin-9-yl)-1-methyl-ethoxy]methyl-[(2R)-2-benzyloxy-3-octadecoxy-propoxy]phosphinate]
- membrane concentration compared with TXL ([8]; 8 h, n = 3): significantly greater concentrations in the membrane than TXL
- drug in membrane fraction ([8]; 20 h): undetectable
- half-life at 3 µM [6]: > 2 h
- CC50 at 48 h [9]: > 10 µM
